Our source for the Activity and Bmax values is ChEMBL document CHEMBL1139647, “Synthesis and biological characterization of [3H] (2-amino-4,5,6,7-tetrahydrobenzo[b]thiophen-3-yl)-(4-chlorophenyl)-methanone, the first radiolabelled adenosine A1 allosteric enhancer” (Bioorg Med Chem Lett, 2006).

Active and inactive are the calls of the source. The rule behind the calls is not given here.

For assay [1], the target named is T1, Adenosine receptor A1 (Homo sapiens) (UniProt P30542).
T1 sequence (whole entry): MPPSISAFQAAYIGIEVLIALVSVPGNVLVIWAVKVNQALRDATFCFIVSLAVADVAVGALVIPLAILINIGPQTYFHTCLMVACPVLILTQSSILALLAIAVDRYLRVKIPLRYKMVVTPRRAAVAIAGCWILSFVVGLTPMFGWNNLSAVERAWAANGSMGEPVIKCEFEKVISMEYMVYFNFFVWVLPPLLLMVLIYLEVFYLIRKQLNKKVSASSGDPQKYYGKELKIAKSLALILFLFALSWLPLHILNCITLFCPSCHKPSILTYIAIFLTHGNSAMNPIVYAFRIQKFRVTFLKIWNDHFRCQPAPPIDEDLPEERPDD
Kind of assay: Activity measured by decrease in cAMP content employing CHO cells expressing human A1 receptor at 10 uM. Type of assay: functional, cell-based. Further details: scale not given: the % may be the effect or the level left.

The target in assay [2] is T1, Adenosine receptor A1 (Homo sapiens). Kind of assay: Increase in agonist-specific binding of [3H]CCPA to human adenosine A1 receptor in CHO membranes. The class given is functional, cell membranes.
Assay [3] deals with T2, Adenosine receptor A1 (Rattus norvegicus) (UniProt P25099).
T2 sequence (whole entry): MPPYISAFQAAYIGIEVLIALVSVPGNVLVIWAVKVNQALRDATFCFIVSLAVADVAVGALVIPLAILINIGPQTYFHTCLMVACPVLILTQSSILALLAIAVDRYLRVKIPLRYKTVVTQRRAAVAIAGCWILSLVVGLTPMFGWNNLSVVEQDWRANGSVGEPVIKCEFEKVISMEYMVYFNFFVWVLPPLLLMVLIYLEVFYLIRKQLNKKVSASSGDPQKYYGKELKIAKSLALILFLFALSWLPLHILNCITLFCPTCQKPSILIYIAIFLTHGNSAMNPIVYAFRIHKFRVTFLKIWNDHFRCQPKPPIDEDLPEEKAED
Briefly: Increase in agonist-specific binding of [3H]CCPA to adenosine A1 receptor in rat cortex. Type of assay: functional.

In assay [4] the target is T1, Adenosine receptor A1 (Homo sapiens). Briefly: Increase in agonist-specific binding of [3H]CCPA to human adenosine A1 receptor in human brain membranes. Type of assay: functional, cell membranes. The settings on record: Membrane.
The target is the same in assay [5]. Briefly: Increase in Bmax for binding of [3H]CCPA to human adenosine A1 receptor in CHO membranes. Type of assay: cell membranes.
In assay [6] the target is T2, Adenosine receptor A1 (Rattus norvegicus). Briefly: Increase in Bmax for binding of [3H]CCPA to adenosine A1 receptor in rat cortex.
For assay [7], the target named is T1, Adenosine receptor A1 (Homo sapiens). Kind of assay: Increase in Bmax for binding of [3H]CCPA to human adenosine A1 receptor in human brain membrane. The class given is cell membranes.
Assay [8] deals with Adenosine receptor A2a (Homo sapiens) (UniProt P29274). Briefly: Increase in binding of [3H]CGS 21680 to human adenosine A2A receptor in CHO membranes. The class given is cell membranes.
For assay [9], the target named is T3, Adenosine receptor A3 (Homo sapiens) (UniProt P0DMS8).
T3 sequence (whole entry): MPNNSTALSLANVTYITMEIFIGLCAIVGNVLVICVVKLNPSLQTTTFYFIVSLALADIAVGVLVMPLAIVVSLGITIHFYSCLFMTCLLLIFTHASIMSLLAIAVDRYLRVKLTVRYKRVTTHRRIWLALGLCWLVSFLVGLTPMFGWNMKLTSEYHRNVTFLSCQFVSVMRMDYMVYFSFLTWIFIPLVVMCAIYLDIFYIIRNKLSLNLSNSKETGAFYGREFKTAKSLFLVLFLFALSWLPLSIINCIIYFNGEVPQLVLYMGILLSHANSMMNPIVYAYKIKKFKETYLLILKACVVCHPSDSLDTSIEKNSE
Kind of assay: Increase in binding of [125I]AB-MECA to human adenosine A3 receptor in CHO membranes. Type of assay: cell membranes.

For assay [10], the target named is T1, Adenosine receptor A1 (Homo sapiens). Briefly: Binding density to adenosine A1 receptor in CHO membranes. Type of assay: cell membranes. The settings on record: tested as the 3H-labelled form.

Adenosine receptor A2a (Homo sapiens), sequence (P29274 whole entry): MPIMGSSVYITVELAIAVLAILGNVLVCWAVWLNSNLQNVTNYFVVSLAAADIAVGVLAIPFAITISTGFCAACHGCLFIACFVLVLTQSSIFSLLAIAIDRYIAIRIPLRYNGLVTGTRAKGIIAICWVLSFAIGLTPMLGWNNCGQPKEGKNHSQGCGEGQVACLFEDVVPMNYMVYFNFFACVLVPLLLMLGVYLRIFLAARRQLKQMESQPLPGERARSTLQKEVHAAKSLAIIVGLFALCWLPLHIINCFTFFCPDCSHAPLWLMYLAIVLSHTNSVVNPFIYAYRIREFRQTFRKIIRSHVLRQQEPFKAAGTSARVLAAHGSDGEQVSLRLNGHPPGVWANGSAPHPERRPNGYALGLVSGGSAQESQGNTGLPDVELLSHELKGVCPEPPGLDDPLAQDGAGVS

On to `Nc1sc2c(c1C(=O)c1ccc(Cl)cc1)CCCC2`, for which the Activity in assay [1] amounted to 55%; in assay [2] it was 51%; in assay [3], 15%; in assay [4], 22%; in assay [5] it was 65%; in assay [6], 15%. The compound further came in with an Activity in assay [7] of 23%. Besides, the outcome in assay [8] and in [9] was inactive. The same compound showed a Bmax in assay [10] of 76.5 pmol/mg.
